Reference: patent US5439930A, “Biologically active n-acylprolydipeptides having antiamnestic, antihypoxic and anorexigenic effects” (Russian-American Institute for New Drug Development, priority 1992, dated 1995)
Where a SMILES comes first, the peptide text is derived from it. The star is where a group is joined. PhAc = O=C(Cc1ccccc1)*

Experiments:
[1] = test system: memory decline evoked by maximal electroshock (MES) in randomly bred male albino rats; assay: Passive avoidance step-through, amnesia by maximal electroshock (MES); format: in vivo
Description: (§1) Compounds according to the present invention, including the compounds described in Examples 1-11, were checked for their ability to prevent memory decline evoked by maximal electroshock (MES) or scopolamine in the passive avoidance step-through paradigm (equipment of Laffaette Co., USA). The experiments described herein (Examples 12, 13, 15, and 19) were carried out using randomly bred male albino rats of a weight of approximately 180-220 g. […] Amnesia was produced by transcorneal maximal electroshock immediately after learning or scopolamine (1 mg/kg, subcutaneously) administration 30 min. before learning. The retention was tested 24 hours later by the measurement of latency of the entering of the dark compartment.
(§2) The degree of antiamnestic activity was estimated according to Buttler's modified formula: [formula]
(§3) The higher the magnitude of this indicator the more is the antiamnestic activity.

[2] = test system: memory decline evoked by scopolamine in randomly bred male albino rats; assay: Passive avoidance step-through, amnesia by scopolamine; format: in vivo; details: 0.1 mg/kg 15 min before learning
Description: as §1, §2, §3

[3] = test system: rat's offspring damaged by prenatal alcoholization; assay: Active avoidance learning of offspring after prenatal alcoholization; format: in vivo, rats
Description: The cognitive impairment in the rat's offspring was provoked by prenatal alcoholization or prenatal hypoxia. Prenatal alcoholization was achieved by peroral administration of 5 g/kg/day (25% solution) ethanol to pregnant female rats during whole pregnancy. To achieve prenatal hypoxia the rats on the 15th day of pregnancy were placed into hypobaric barometric chamber (the "elevating" up 8500 m altitude; exposition for 2 hours).
The treatment of the offspring was performed from 8th day to 20th day. Compound I was administered in the dose of 0.1 mg/kg/day subcutaneously. The testing was performed on two-month old rats.
It has been established that both kinds of damage (alcoholization, hypoxia) caused learning disorders in active avoidance test. Early postnatal administration of Compound I restored learning activity (Table 9).

[4] = test system: active avoidance learning, rats; assay: Active avoidance learning in shuttle-box test; format: in vivo
Excerpt: The influence of Compound I on the active avoidance learning was studied in shuttle-box test (Ugo Basile, Italy). The conditioned reflex of active avoidance had been developed for 5 days with 50 daily trials for each rat. The learning task consisted in the rats' avoiding of the electric shock applied through the cage floor directly after sound. Rats could avoid the shock by moving into another compartment of the cage, but only while the sound was present (3 sec.).

[5] = test system: phenazepam withdrawn male albino rats; assay: Pentylenetetrazol kindling seizures during phenazepam withdrawal; format: in vivo
Description: The influence of Compound I on withdrawal syndrome caused by the interruption of chronic administration of benzodiazepine tranquilizer phenazepam (T. A. Voronina et al., In Fenazepam; A. V. Bogatsky, Ed.; Naukova dumka Publishers: Kiev, 1982; pp. 67-169) was studied in experiments on male albino rats weighing 190-200 g at the beginning and 300-350 g at the end of the experiment.
Phenazepam (2 mg/kg intraperitoneally) or saline (control group of rats) were given once daily for 57 days. The withdrawal syndrome occurred 24-72 hours after the last injection. The withdrawal syndrome in rats consisted in "anxiogenic-like" state aggressiveness and accelerated development of kindled seizures caused by pentylentetrazol. Compound I was administered to the withdrawn rats in doses of 0.5 mg/kg intraperitoneally 15 minutes prior to testing.
The seizure reactions of rats were studied using chemical kindling (C.R. Mason et al., Epilepsia, 13, 663-674 (1972); R. M. Post et al., Handbook of Biological Psychiatry, Part IV, No. 7, Marcel-Dekker (1981) pp. 609-651) produced by small doses of pentylene-tetrazol (35 mg/kg, intraperitoneally) administrated 24, 48 and 72 h after phenazepam withdrawal. The degree of seizures was evaluated by 4 points: tremor (1 point); jerk (2 point); clonic seizures (3 points); tonic seizures and death (4 points).
Our experiments pointed out that the pentylenetetrazol seizures were more pronounced in phenazepam withdrawn rats than in the control one. Compound I diminished the degree of kindling provoked by pentylenetetrazol (Table 14).

[6] = Body weight and food consumption; format: in vivo, rats
Description: The influence of Compound I on body weight and food consumption was studied in the experiments on the outbred rats. The substance, administered during 3 weeks in dose of 0.1 mg/kg/day intraperitoneally slowed the dynamics of weight increase in comparison to control: the increase of the weight (in %% to the initial one) was 12% in the treated group and 24% in the control group.
The amount of the consumed chow checked between 19th and 21st days was less for treated animals (39.5 g/day/rat) than for control ones (68.6 g/day/rat).

24-month Wistar rats = assay: Locomotor activity and habituation in aged rats (Optovarimex); format: in vivo
Description: The influence of Compound I on age-related mental decline was studied in experiments on 24-month Wistar rats. The substance was administered chronically in the dose of 0.1 mg/kg/day during 24 days, intraperitoneally before the testing and 14 days during testing.
Registration of the locomotor activity in the Optovarimex multichannel analyzer has shown that Compound I increased the initial horizontal activity being administered chronically. […] This test is suitable for the study of nootropics. In the control group the coefficient of the habituation was 0.29.

In the case of CCOC(=O)CNC(=O)[C@@H]1CCCN1C(=O)Cc1ccccc1 [Compound I, N-phenacetyl-L-prolylglycine ethyl ester] (PhAc-Pro-Gly-OEt), the “Latency (sec.) Amnesia + subst.” value ([1]; 0.1 mg/kg i.p. 15 min before training, MES after learning, retention 24 h later) is reported as 25 s, the “AA % (antiamnestic activity, Butler's modified formula)” value ([1]; 0.1 mg/kg i.p. 15 min before training, MES amnesia) is reported as 36% and the “Antiamnestic activity (Aa)” value ([1]; 0.1 mg/kg per os, MES amnesia) is reported as 19%. The “Antiamnestic activity (Aa)” value ([1]; 0.3 mg/kg per os, MES amnesia) was 19%, the “Antiamnestic activity (Aa)” value ([1]; 0.4 mg/kg per os, MES amnesia) was 23% and the “Antiamnestic activity (Aa)” value ([1]; 0.5 mg/kg per os, MES amnesia) was 43%. For the same compound, the “Antiamnestic activity (Aa)” value ([1]; 0.7 mg/kg per os, MES amnesia) was 52%, the “Antiamnestic activity (Aa)” value ([1]; 0.9 mg/kg per os, MES amnesia) was 36% and the “Antiamnestic activity (Aa)” value ([1]; 1.0 mg/kg per os, MES amnesia) was 10%. The “Antiamnestic activity (Aa)” value ([1]; 1.2 mg/kg per os, MES amnesia) was 16%, the “Antiamnestic activity (Aa)” value ([1]; 1.5 mg/kg per os, MES amnesia) was 10% and the “Aa (antiamnestic activity)” value ([2]; scopolamine 1 mg/kg s.c.) was 55.5. The “Latency (sec.) Scopolamine + substance” value ([2]; scopolamine 1 mg/kg s.c. 30 min before trial) was 64.1 s, the “Rats with reflex of active avoidance” value ([3]; day 1 of learning, 0.1 mg/kg/day s.c. from 8th to 20th day) was 0% and the “Rats with reflex of active avoidance” value ([3]; day 1 of retention) was 78%. For the same compound, the “Rats with reflex of active avoidance” value ([3]; day 2 of learning) was 0%, the “Rats with reflex of active avoidance” value ([3]; day 2 of retention) was 89% and the “Rats with reflex of active avoidance” value ([3]; day 3 of learning) was 55%. The “Rats with reflex of active avoidance” value ([3]; day 4 of learning) was 82%, the “Percentage of the rats reached the stable avoidance” value (from here on “Percentage”) ([4]; day 1 of learning, 0.1 mg/kg daily i.p. 14 days before and during learning) was 0 and the “Percentage” value ([4]; day 2 of learning, 0.1 mg/kg daily i.p.) was 15. For the same compound, the “Percentage” value ([4]; day 3 of learning, 0.1 mg/kg daily i.p.) was 43, the “Percentage” value ([4]; day 4 of learning, 0.1 mg/kg daily i.p.) was 57 and the “Percentage” value ([4]; day 5 of learning, 0.1 mg/kg daily i.p.) was 67. For the same compound, the “Seizure Reactions in Points (M ± m)” value ([5]; 24 h after phenazepam withdrawal, pentylenetetrazol 35 mg/kg i.p., 0.5 mg/kg i.p.) was 0.25 ± 0.12 points, the “Seizure Reactions in Points (M ± m)” value ([5]; 48 h after phenazepam withdrawal) was 0.87 ± 0.1 points and the “Seizure Reactions in Points (M ± m)” value ([5]; 72 h after phenazepam withdrawal) was 0.5 ± 0.24 points. For the same compound, the “Increase of the weight (in %% to the initial one)” value ([6]; 0.1 mg/kg/day i.p. during 3 weeks) was 12%, the “Amount of the consumed chow” value ([6]; between 19th and 21st days, 0.1 mg/kg/day i.p.) was 39.5 g/day/rat and the “Coefficient of habituation (ratio - 5th min/1st min)” value (24-month Wistar rats; 0.1 mg/kg/day i.p. chronically) was 0.03. For the same compound, the “Locomotor activity (counts)” value (24-month Wistar rats; 1st min. of registration, 0.1 mg/kg/day i.p. chronically) was 422 counts and the “Locomotor activity (counts)” value (24-month Wistar rats; 5th min. of registration) was 13 counts.
